Assays:
[1] = test system: IPOHE (Ipomoea hederacea); experiment: Postemergence herbicidal evaluation; assay type: in vivo, (L.) Jacq.; details: postemergence
Summary of the method: (§1)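 Seedlings grown for about two weeks were sprayed postemergence and then kept under standard greenhouse care. Injury was rated visually 4–5 weeks after treatment on a 0–9 scale against untreated controls, and ratings from repeat tests were averaged.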

ORYSAT (Rice, Tebonnet) [2] = experiment: Preemergence herbicidal evaluation; assay type: in vivo, Oryza sativa, (L.) Tebonnet; details: rated 4-5 weeks after treatment
GALAP (Galium aparine) = experiment: Postemergence herbicidal evaluation; assay type: in vivo; details: postemergence
Summary of the method: as §1

ZEAMX (Corn, Field) = experiment: Postemergence herbicidal evaluation; assay type: in vivo, Zea mays, L.; details: postemergence
Summary of the method: as §1

SETVI (Setaria viridis) = experiment: Preemergence herbicidal evaluation; assay type: in vivo, (L.) Beau; details: rated 4-5 weeks after treatment
Summary of the method: (§2)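 Each species was sown separately in potting soil over roughly one inch of soil, and the surface sprayed with compound dissolved in aqueous acetone. Assessment used a 0–9 visual scale against a control after four to five weeks.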

[3] = test system: ECHCG (Echinochloa crus-galli); experiment: Preemergence herbicidal evaluation; assay type: in vivo, (L.) Beau; details: rated 4-5 weeks after treatment
Summary of the method: as §2

ORYSAT (Rice, Tebonnet) [4] = experiment: Postemergence herbicidal evaluation; assay type: in vivo, Oryza sativa, (L.) Tebonnet; details: postemergence
Summary of the method: as §1

[5] = test system: GLXMAW (Soybean, Williams); experiment: Postemergence herbicidal evaluation; assay type: in vivo, Glycine max, (L.) Merr. cv Williams; details: postemergence
Summary of the method: as §1

[6] = test system: TRZAWR (Wheat, Winter, cv Riband); experiment: Preemergence herbicidal evaluation; assay type: in vivo, Triticum aestivum; details: rated 4-5 weeks after treatment
Summary of the method: as §2

[7] = test system: ABUTH (Abutilon theophrasti); experiment: Postemergence herbicidal evaluation; assay type: in vivo, Medic.; details: postemergence
Summary of the method: as §1

[8] = test system: CHEAL (Chenopodium album); experiment: Postemergence herbicidal evaluation; assay type: in vivo, L.; details: postemergence
Summary of the method: as §1

[9] = test system: CASOB (Cassia obtusifolia); experiment: Postemergence herbicidal evaluation; assay type: in vivo, L.; details: postemergence
Summary of the method: as §1

[10] = test system: AMBEL (Ambrosia artemisifolia); experiment: Postemergence herbicidal evaluation; assay type: in vivo, L.; details: postemergence
Summary of the method: as §1

Work on Cn1c(C(F)(F)F)cc(=O)n(-c2ccc3snc(C4(C)OCCO4)c3c2)c1=O [Compound 54, 1-methyl-3-[3-(2-methyl-1,3-dioxolan-2-yl)-1,2-benzisothiazol-5-yl]-6-(trifluoromethyl)uracil] yielded an IPOHE herbicidal rating ([1]; rate 0.0320 kg/ha) of 9.0, an IPOHE herbicidal rating ([1]; rate 0.0620 kg/ha) of 9.0 and an IPOHE herbicidal rating ([1]; rate 0.1250 kg/ha) of 9.0. The “Preemergence herbicidal rating ORYSAT” value (ORYSAT (Rice, Tebonnet) [2]; Rate 0.0620 kg/ha) was 9.0, the “Preemergence herbicidal rating ORYSAT” value (ORYSAT (Rice, Tebonnet) [2]; Rate 0.1250 kg/ha) was 9.0 and the “Preemergence herbicidal rating ORYSAT” value (ORYSAT (Rice, Tebonnet) [2]; Rate 0.2500 kg/ha) was 9.0. It also gave a GALAP herbicidal rating (GALAP (Galium aparine); rate 0.0320 kg/ha) of 5.0, a GALAP herbicidal rating (GALAP (Galium aparine); rate 0.0620 kg/ha) of 9.0 and a GALAP herbicidal rating (GALAP (Galium aparine); rate 0.1250 kg/ha) of 9.0. It also gave a ZEAMX herbicidal rating (ZEAMX (Corn, Field); rate 0.0320 kg/ha) of 4.0, a ZEAMX herbicidal rating (ZEAMX (Corn, Field); rate 0.0620 kg/ha) of 4.0 and a ZEAMX herbicidal rating (ZEAMX (Corn, Field); rate 0.1250 kg/ha) of 5.5. For the same molecule, the “Preemergence herbicidal rating SETVI” value (SETVI (Setaria viridis); Rate 0.0620 kg/ha) was 9.0, the “Preemergence herbicidal rating SETVI” value (SETVI (Setaria viridis); Rate 0.1250 kg/ha) was 9.0 and the “Preemergence herbicidal rating SETVI” value (SETVI (Setaria viridis); Rate 0.2500 kg/ha) was 9.0. The “Preemergence herbicidal rating ECHCG” value ([3]; Rate 0.0620 kg/ha) was 9.0, the “Preemergence herbicidal rating ECHCG” value ([3]; Rate 0.1250 kg/ha) was 9.0 and the “Preemergence herbicidal rating ECHCG” value ([3]; Rate 0.2500 kg/ha) was 9.0. It also gave an ORYSAT herbicidal rating (ORYSAT (Rice, Tebonnet) [4]; rate 0.0320 kg/ha) of 5.0, an ORYSAT herbicidal rating (ORYSAT (Rice, Tebonnet) [4]; rate 0.0620 kg/ha) of 6.5 and an ORYSAT herbicidal rating (ORYSAT (Rice, Tebonnet) [4]; rate 0.1250 kg/ha) of 7.0. The GLXMAW herbicidal rating ([5]; rate 0.0320 kg/ha) was 8.0, the GLXMAW herbicidal rating ([5]; rate 0.0620 kg/ha) was 8.5 and the GLXMAW herbicidal rating ([5]; rate 0.1250 kg/ha) was 9.0. The “Preemergence herbicidal rating TRZAWR” value ([6]; Rate 0.0620 kg/ha) was 9.0, the “Preemergence herbicidal rating TRZAWR” value ([6]; Rate 0.1250 kg/ha) was 9.0 and the “Preemergence herbicidal rating TRZAWR” value ([6]; Rate 0.2500 kg/ha) was 9.0. It also gave an ABUTH herbicidal rating ([7]; rate 0.0320 kg/ha) of 9.0, an ABUTH herbicidal rating ([7]; rate 0.0620 kg/ha) of 9.0 and an ABUTH herbicidal rating ([7]; rate 0.1250 kg/ha) of 9.0. It also gave a CHEAL herbicidal rating ([8]; rate 0.0320 kg/ha) of 5.0, a CHEAL herbicidal rating ([8]; rate 0.0620 kg/ha) of 9.0 and a CHEAL herbicidal rating ([8]; rate 0.1250 kg/ha) of 9.0. The CASOB herbicidal rating ([9]; rate 0.0320 kg/ha) was 2.0, the CASOB herbicidal rating ([9]; rate 0.0620 kg/ha) was 9.0 and the CASOB herbicidal rating ([9]; rate 0.1250 kg/ha) was 9.0. It also gave an AMBEL herbicidal rating ([10]; rate 0.0320 kg/ha) of 9.0, an AMBEL herbicidal rating ([10]; rate 0.0620 kg/ha) of 9.0 and an AMBEL herbicidal rating ([10]; rate 0.1250 kg/ha) of 9.0.
CC1CC(C)(C)OC(c2nsc3ccc(-n4c(=O)cc(C(F)(F)F)n(C)c4=O)cc23)O1 (stereo not drawn) [Compound 55, 1-methyl-6-(trifluoromethyl)-3-[3-(4,4,6-trimethyl-m-dioxan-2-yl)-1,2-benzisothiazol-5-yl]uracil] was tested, and the IPOHE herbicidal rating ([1]; rate 0.0320 kg/ha) was 9.0, the IPOHE herbicidal rating ([1]; rate 0.0620 kg/ha) was 9.0 and the “Preemergence herbicidal rating ORYSAT” value (ORYSAT (Rice, Tebonnet) [2]; Rate 0.0620 kg/ha) was 7.5. For the same molecule, the “Preemergence herbicidal rating ORYSAT” value (ORYSAT (Rice, Tebonnet) [2]; Rate 0.1250 kg/ha) was 9.0, the “Preemergence herbicidal rating ORYSAT” value (ORYSAT (Rice, Tebonnet) [2]; Rate 0.2500 kg/ha) was 9.0 and the GALAP herbicidal rating (GALAP (Galium aparine); rate 0.0320 kg/ha) was 2.0. The GALAP herbicidal rating (GALAP (Galium aparine); rate 0.0620 kg/ha) was 2.0, the ZEAMX herbicidal rating (ZEAMX (Corn, Field); rate 0.0320 kg/ha) was 4.5 and the ZEAMX herbicidal rating (ZEAMX (Corn, Field); rate 0.0620 kg/ha) was 5.0. For the same molecule, the “Preemergence herbicidal rating SETVI” value (SETVI (Setaria viridis); Rate 0.0620 kg/ha) was 9.0, the “Preemergence herbicidal rating SETVI” value (SETVI (Setaria viridis); Rate 0.1250 kg/ha) was 9.0 and the “Preemergence herbicidal rating SETVI” value (SETVI (Setaria viridis); Rate 0.2500 kg/ha) was 9.0. For the same molecule, the “Preemergence herbicidal rating ECHCG” value ([3]; Rate 0.0620 kg/ha) was 9.0, the “Preemergence herbicidal rating ECHCG” value ([3]; Rate 0.1250 kg/ha) was 9.0 and the “Preemergence herbicidal rating ECHCG” value ([3]; Rate 0.2500 kg/ha) was 9.0. The ORYSAT herbicidal rating (ORYSAT (Rice, Tebonnet) [4]; rate 0.0320 kg/ha) was 3.0, the ORYSAT herbicidal rating (ORYSAT (Rice, Tebonnet) [4]; rate 0.0620 kg/ha) was 4.5 and the GLXMAW herbicidal rating ([5]; rate 0.0320 kg/ha) was 4.5. The GLXMAW herbicidal rating ([5]; rate 0.0620 kg/ha) was 5.0, the “Preemergence herbicidal rating TRZAWR” value ([6]; Rate 0.0620 kg/ha) was 8.0 and the “Preemergence herbicidal rating TRZAWR” value ([6]; Rate 0.1250 kg/ha) was 9.0. The “Preemergence herbicidal rating TRZAWR” value ([6]; Rate 0.2500 kg/ha) was 9.0, the ABUTH herbicidal rating ([7]; rate 0.0320 kg/ha) was 9.0 and the ABUTH herbicidal rating ([7]; rate 0.0620 kg/ha) was 9.0. The CHEAL herbicidal rating ([8]; rate 0.0320 kg/ha) was 5.0, the CHEAL herbicidal rating ([8]; rate 0.0620 kg/ha) was 4.0 and the CASOB herbicidal rating ([9]; rate 0.0320 kg/ha) was 2.0. For the same molecule, the CASOB herbicidal rating ([9]; rate 0.0620 kg/ha) was 1.0, the AMBEL herbicidal rating ([10]; rate 0.0320 kg/ha) was 9.0 and the AMBEL herbicidal rating ([10]; rate 0.0620 kg/ha) was 9.0.
In the case of CC1COC(c2nsc3ccc(-n4c(=O)cc(C(F)(F)F)n(C)c4=O)cc23)O1 (stereo not drawn) [Compound 57, 1-methyl-3-[3-(4-methyl-1,3-dioxolan-2-yl)-1,2-benzisothiazol-5-yl]-6-(trifluoromethyl)uracil], the IPOHE herbicidal rating ([1]; rate 0.0320 kg/ha) is reported as 9.0, the IPOHE herbicidal rating ([1]; rate 0.0620 kg/ha) is reported as 9.0 and the “Preemergence herbicidal rating ORYSAT” value (ORYSAT (Rice, Tebonnet) [2]; Rate 0.0620 kg/ha) is reported as 8.0. For the same molecule, the “Preemergence herbicidal rating ORYSAT” value (ORYSAT (Rice, Tebonnet) [2]; Rate 0.1250 kg/ha) was 8.0, the “Preemergence herbicidal rating ORYSAT” value (ORYSAT (Rice, Tebonnet) [2]; Rate 0.2500 kg/ha) was 9.0 and the GALAP herbicidal rating (GALAP (Galium aparine); rate 0.0320 kg/ha) was 6.0. For the same molecule, the GALAP herbicidal rating (GALAP (Galium aparine); rate 0.0620 kg/ha) was 9.0, the ZEAMX herbicidal rating (ZEAMX (Corn, Field); rate 0.0320 kg/ha) was 5.0 and the ZEAMX herbicidal rating (ZEAMX (Corn, Field); rate 0.0620 kg/ha) was 5.5. For the same molecule, the “Preemergence herbicidal rating SETVI” value (SETVI (Setaria viridis); Rate 0.0620 kg/ha) was 9.0, the “Preemergence herbicidal rating SETVI” value (SETVI (Setaria viridis); Rate 0.1250 kg/ha) was 9.0 and the “Preemergence herbicidal rating SETVI” value (SETVI (Setaria viridis); Rate 0.2500 kg/ha) was 9.0. The “Preemergence herbicidal rating ECHCG” value ([3]; Rate 0.0620 kg/ha) was 9.0, the “Preemergence herbicidal rating ECHCG” value ([3]; Rate 0.1250 kg/ha) was 9.0 and the “Preemergence herbicidal rating ECHCG” value ([3]; Rate 0.2500 kg/ha) was 9.0. It also gave an ORYSAT herbicidal rating (ORYSAT (Rice, Tebonnet) [4]; rate 0.0320 kg/ha) of 4.0, an ORYSAT herbicidal rating (ORYSAT (Rice, Tebonnet) [4]; rate 0.0620 kg/ha) of 4.5 and a GLXMAW herbicidal rating ([5]; rate 0.0320 kg/ha) of 7.0. The GLXMAW herbicidal rating ([5]; rate 0.0620 kg/ha) was 8.5, the “Preemergence herbicidal rating TRZAWR” value ([6]; Rate 0.0620 kg/ha) was 8.0 and the “Preemergence herbicidal rating TRZAWR” value ([6]; Rate 0.1250 kg/ha) was 8.0. The “Preemergence herbicidal rating TRZAWR” value ([6]; Rate 0.2500 kg/ha) was 9.0, the ABUTH herbicidal rating ([7]; rate 0.0320 kg/ha) was 9.0 and the ABUTH herbicidal rating ([7]; rate 0.0620 kg/ha) was 9.0. For the same molecule, the CHEAL herbicidal rating ([8]; rate 0.0320 kg/ha) was 9.0, the CHEAL herbicidal rating ([8]; rate 0.0620 kg/ha) was 7.0 and the CASOB herbicidal rating ([9]; rate 0.0320 kg/ha) was 7.0. It also gave a CASOB herbicidal rating ([9]; rate 0.0620 kg/ha) of 9.0, an AMBEL herbicidal rating ([10]; rate 0.0320 kg/ha) of 9.0 and an AMBEL herbicidal rating ([10]; rate 0.0620 kg/ha) of 9.0.
